# Entries after “also recorded” stand apart in the source; their conditions may differ.
# How the values were obtained:
# Type in all cases: biochemical
# G85R = target: T1, G85R (Homo sapiens, UniProt P00441, G86R); experiment: EDTA-induced aggregation of G85R
# T1 construct: made in house
# Description: (§1) Aggregation assays for screening were prepared by adding a stock solution of compound to a protein solution (final concentrations: 100 μM compound, 50 μM protein). Following a 15 minute preincubation period at 37° C., 5 mM EDTA was added to initiate aggregation. Aliquots were periodically removed and analyzed for the amount of SOD-1 dimer present. This value correlated in all cases with the appearance of oligomers by gel filtration on a Superdex 200™ (3.2/30) gel filtration column (Pharmacia). All chromatography was performed in TBS, pH 7.4 (20 mM Tris, 150 mM NaCl) on a Waters 2690 Alliance HPLC and monitored at 220 and 276 nm. […] Assays in the absence of EDTA were carried as described previously (16). For Apo-A4V experiments, buffers were treated with CHELEX (except those containing EDTA) and experiments were performed in plastic tubes to avoid introduction of contaminating zinc into the Apo-protein.
# G93A = target: T2, G93A (Homo sapiens, UniProt P00441, G94A); experiment: EDTA-induced aggregation of G93A
# T2 construct: made in house
# T2 sequence (P00441 2-154 G94A limits assumed): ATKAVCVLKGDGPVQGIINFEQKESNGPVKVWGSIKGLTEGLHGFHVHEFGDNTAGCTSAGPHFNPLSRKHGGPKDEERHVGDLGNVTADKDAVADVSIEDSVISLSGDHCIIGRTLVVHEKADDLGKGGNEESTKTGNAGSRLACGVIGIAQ
# Description: as §1
# A4V = target: T3, A4V (Homo sapiens, UniProt P00441, A5V); experiment: Guanidinium chloride unfolding of A4V (fluorescence); settings: 5 μM protein, fluorescence 348 nm
# T3 construct: made in house
# T3 sequence (P00441 2-154 A5V limits assumed): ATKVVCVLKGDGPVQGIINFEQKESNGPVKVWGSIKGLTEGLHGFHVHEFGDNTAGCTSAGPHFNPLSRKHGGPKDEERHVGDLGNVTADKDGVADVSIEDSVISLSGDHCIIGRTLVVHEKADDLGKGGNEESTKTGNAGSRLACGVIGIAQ
# Source text: Equilibrium unfolding transition, as a function of GdnCl concentration, was monitored by fluorescence spectroscopy. The fluorescence measurements were done on a Hitachi f-4500 spectrofluorometer in a 1-cm cell connected to a circulation water bath. The excitation and emission wavelengths were fixed at 278 and 348 nm, respectively, after making appropriate corrections for buffer and GdnCl. The slit width was 5 nm for both monochromators. Each measurement was an average of five readings. Protein concentration used for fluorescence experiments was 5 μM. The data were analyzed directly for a two-state (N→U) transition as follows: the raw data for the GdnCl-induced denaturation studies were converted to fractions of the protein in the unfolded state (fu) as a function of GdnCl concentration using the equation: fu=Y0−(Yf+mf[GdnCl.])/(Yu+mu[GdnCl.])−(Yf+mf[GdnCl.]) where Y0 is the observed spectroscopic property, Yf and mf are the […] of the folded state baseline and Yu and mu represent the respective values of the unfolded baseline. The folded fraction was calculated as (fn=1−fu) and the equilibrium constant was determined by Keq=fu/fn. The free energy of unfolding was determined using the equation ΔG=−RT ln(Keq) where T is the temperature in Kelvin and R is the universal gas constant (1.987 cal mol−1 K−1).
# [1] = target: T4, A4V, a FALS-linked variant of SOD-1 (Homo sapiens, UniProt P00441, A5V); experiment: A4V aggregation assay with EDTA (SOD-1 dimer loss by gel filtration); settings: 100 μM compound, 50 μM protein
# T4 construct: made in house
# T4 sequence (P00441 2-154 A5V limits assumed): as above
# Description: SOD-1 dimer was purified on a Superdex 75™ (16/60) gel filtration column (Pharmacia) to produce starting material for each aggregation experiment. Metal analyses were carried by inductive coupled plasma mass-spectrometry (ICP-MS). WT and G93A were nearly fully metallated, and G85R and A4V were deficient in zinc and copper, respectively.
# as §1
# A4V/V7F/V148F = target: T5, A4V/V7F/V148F (Homo sapiens, UniProt P00441, A5V/V149F/V8F); experiment: Aggregation of A4V/V7F/V148F (putative binding site disturbed); settings: binding site disturbed by V7F/V148F
# T5 construct: made in house; host or cells: E. coli
# T5 sequence (P00441 2-154 A5V/V8F/V149F limits assumed): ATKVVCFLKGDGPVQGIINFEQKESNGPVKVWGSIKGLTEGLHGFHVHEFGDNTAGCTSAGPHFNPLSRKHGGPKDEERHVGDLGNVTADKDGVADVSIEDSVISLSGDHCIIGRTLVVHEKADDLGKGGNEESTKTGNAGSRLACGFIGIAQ
# Description: as §1
# To investigate the effect of partially capping the cavity with hydrophobic moieties, residues V148 and V7, the sidechains of which protruded into the cavity, were mutated to phenylalanine. […] Filling cavities in protein structures with hydrophobic side chains often stabilizes the protein structure (30, 31), lysozyme being a classic example (32).
# Three variants of SOD-1, in which the V7F and V148F mutations were introduced into WT, A4V and G93A, were cloned, expressed in E. coli and purified as described previously (15). Each protein was subjected to guanidine chloride (GdnCl) unfolding and fluorescence intensity (348 nm) was monitored at 25° C. WT enzyme was completely unfolded at 3.5 M GdnCl (Cm=3.2 M, where Cm is the midpoint of transition), while A4V was completely unfolded at 1.9 M GdnCl (Cm=1.51 M). […] G93A/V7F/V148F was slightly more resistant to denaturation than G93A. No significant effect of the two V→F mutations on the denaturation of WT (i.e., WT vs. V7F/V148F) could be measured. The V→F mutations stabilized both A4V and G93A against EDTA induced aggregation. […] Similarly, G93A/V7F/V148F aggregated slightly more slowly than G93A.
# SOD = experiment: Testing of structural analogs for inhibition of SOD aggregation; settings: Example 2, compounds of FIG. 2
# Description: as §1
# A structural analysis was performed on the 15 compounds found to be active in the assays described in Example 1 (see FIG. 1). […] Although most of the compounds tested were purchased commercially, two (1,2-di-[6-Mercapto-2H-[1,2,4]triazine-3,5-dione]ethane; and di-{5-[1H-pyrimidine-2,4-dione]methyl}thioether) were synthesized as described in Example 3.
# T1 sequence (P00441 2-154 G86R limits assumed): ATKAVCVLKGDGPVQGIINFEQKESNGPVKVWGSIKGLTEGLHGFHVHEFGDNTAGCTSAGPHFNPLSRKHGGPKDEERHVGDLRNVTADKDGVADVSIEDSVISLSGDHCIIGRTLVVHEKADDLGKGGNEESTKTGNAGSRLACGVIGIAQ
SMILES,inhibition of G85R aggregation (G85R),inhibition of G93A aggregation (G93A),stabilization of A4V against GdnCl induced unfolding (expressed as ΔG) (A4V),inhibition of A4V aggregation (in words) [1],change in the aggregation rate of A4V/V7F/V148F (A4V/V7F/V148F),inhibition of SOD aggregation by structural analogs (SOD)
"O=c1cc(Nc2ccc(Cl)cc2)[nH]c(=O)[nH]1 [Compound 2, 6-[(4-chlorophenyl)amino]pyrimidine-2,4(1H,4H)-dione]",among the best inhibitors,among the best inhibitors,stabilized A4V nearly to WT levels; also recorded: stabilizes the A4V dimer to an extent comparable to the difference in stability between the invariably lethal A4V and WT SOD-1,most potent A4V aggregation inhibitors; also recorded: among the most potent aggregation inhibitors,no appreciable change,–
"Oc1ccc(Br)cc1/C=N/c1ccc(F)cc1 [Compound 4, 4-bromo-2-{(E)-[(4-fluorophenyl)imino]methyl}phenol]",among the best inhibitors,among the best inhibitors,stabilized A4V nearly to WT levels,most potent A4V aggregation inhibitors; also recorded: among the most potent aggregation inhibitors,no appreciable change,–
"O=c1[nH]cc(CSCc2c[nH]c(=O)[nH]c2=O)c(=O)[nH]1 [di-{5-[1H-pyrimidine-2,4-dione]methyl}thioether]",–,–,–,–,–,most active
"O=c1[nH]c(=O)n(CCn2nc(S)c(=O)[nH]c2=O)nc1S [1,2-di-[6-Mercapto-2H-[1,2,4]triazine-3,5-dione]ethane]",–,–,–,–,–,most active
"O=c1[nH]nc(SCc2ccc(Cl)cc2)c(=O)[nH]1 [Compound 3, 6-[(4-chlorobenzyl)thio]1,2,4-triazine-3,5(2H,4H)-dione]",among the best inhibitors,among the best inhibitors,stabilized A4V nearly to WT levels,most potent A4V aggregation inhibitors; also recorded: among the most potent aggregation inhibitors,no appreciable change,–
"O=c1[nH]cc(CSc2n[nH]c(=O)[nH]c2=O)c(=O)[nH]1 [6-{[(2,4-dioxo-1,2,3,4-tetrahydropyrimidin-5-yl)methyl]thio}-1,2,4-triazine-3,5(2H,4H)-dione]",–,–,–,–,–,most active
"O=c1[nH]nc(SCc2ccc(F)cc2)c(=O)[nH]1 [Compound 7, 6-[(4-fluorobenzyl)thio]-1,2,4-triazine-3,5(2H,4H)-dione]",among the best inhibitors,among the best inhibitors,stabilized A4V nearly to WT levels,most potent A4V aggregation inhibitors; also recorded: among the most potent aggregation inhibitors,no appreciable change,–

# — patent publication US20060194821A1, “Compounds inhibiting the aggregation of superoxide dismutase-1” (The Brigham and women's Hospital, Inc., priority 2005, published 2006)
